Legend:
Assay in all cases: relative viability (nuclei count vs DMSO), 5 days (fraction); higher = more cells survive
Vorinostat + Bortezomib = compound: O=C(CCCCCCC(=O)Nc1ccccc1)NO [Vorinostat] + CC(C)C[C@H](NC(=O)[C@H](Cc1ccccc1)NC(=O)c1cnccn1)B(O)O [Bortezomib] (partner 0.002 µM)
Procedure, shortened: (§1)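 After 5 days of treatment, lung cancer cells in 1536-well plates were fixed and stained in a single step (final 0.05% Triton X-100, 1% formaldehyde, 1 ug/ml Hoechst) and their nuclei counted on 4× images. Treatment had been applied by pin tool the day after seeding as one drug alone or as a fixed anchor-drug dose with five library-drug doses (not always all listed) in √10 steps. Relative viability is the nuclei count of treated wells divided by that of vehicle wells, and values are medians of duplicate plates.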

Vorinostat + Navitoclax = compound: O=C(CCCCCCC(=O)Nc1ccccc1)NO [Vorinostat] + CC1(C)CCC(c2ccc(Cl)cc2)=C(CN2CCN(c3ccc(C(=O)NS(=O)(=O)c4ccc(N[C@H](CCN5CCOCC5)CSc5ccccc5)c(S(=O)(=O)C(F)(F)F)c4)cc3)CC2)C1 [Navitoclax] (partner 0.5 µM)
Procedure, shortened: as §1

Vorinostat + Alpelisib = compound: O=C(CCCCCCC(=O)Nc1ccccc1)NO [Vorinostat] + Cc1nc(NC(=O)N2CCC[C@H]2C(N)=O)sc1-c1ccnc(C(C)(C)C(F)(F)F)c1 [Alpelisib] (partner 2 µM)
Procedure, shortened: as §1

Vorinostat + Decitabine = compound: O=C(CCCCCCC(=O)Nc1ccccc1)NO [Vorinostat] + Nc1ncn([C@H]2C[C@H](O)[C@@H](CO)O2)c(=O)n1 [Decitabine] (partner 2 µM)
Procedure, shortened: as §1

| Cell Line | relative viability (Vorinostat + Bortezomib; first compound 0.253 µM) | relative viability (Vorinostat + Bortezomib; first compound 0.8 µM) | relative viability (Vorinostat + Bortezomib; first compound 2.53 µM) | relative viability (Vorinostat + Bortezomib; first compound 8 µM) | relative viability (Vorinostat + Navitoclax; first compound 0.253 µM) | relative viability (Vorinostat + Navitoclax; first compound 0.8 µM) | relative viability (Vorinostat + Navitoclax; first compound 2.53 µM) | relative viability (Vorinostat + Navitoclax; first compound 8 µM) | relative viability (Vorinostat + Alpelisib; first compound 0.253 µM) | relative viability (Vorinostat + Alpelisib; first compound 0.8 µM) | relative viability (Vorinostat + Alpelisib; first compound 2.53 µM) | relative viability (Vorinostat + Alpelisib; first compound 8 µM) | relative viability (Vorinostat + Decitabine; first compound 0.253 µM) | relative viability (Vorinostat + Decitabine; first compound 0.8 µM) | relative viability (Vorinostat + Decitabine; first compound 2.53 µM) | relative viability (Vorinostat + Decitabine; first compound 8 µM) |
| --- | --- | --- | --- | --- | --- | --- | --- | --- | --- | --- | --- | --- | --- | --- | --- | --- |
| HARA | 1.1 | 0.928 | 0.149 | 0.0288 | 1.17 | 1.16 | 0.606 | 0.086 | 0.949 | 0.761 | 0.174 | 0.0907 | 0.468 | 0.367 | 0.194 | 0.0814 |
| HCC-78 | 0.495 | 0.265 | 0.119 | 0.126 | 0.711 | 0.324 | 0.15 | 0.116 | 0.346 | 0.208 | 0.114 | 0.099 | 0.672 | 0.634 | 0.355 | 0.236 |
| HCC-827 | 1.03 | 1.11 | 0.913 | 0.451 | 1.04 | 1.03 | 0.818 | 0.195 | 1.08 | 1.04 | 0.634 | 0.197 | 0.344 | 0.343 | 0.274 | 0.213 |
| NCI-H2085 | 0.942 | 0.841 | 0.566 | 0.265 | 1.18 | 1.02 | 0.643 | 0.269 | 0.982 | 0.947 | 0.514 | 0.255 | 0.569 | 0.554 | 0.379 | 0.281 |
| NCI-H2405 | 1.06 | 1.01 | 0.952 | 0.206 | 1.13 | 0.771 | 0.0779 | 0.0557 | 1.01 | 0.835 | 0.16 | 0.0486 | 0.794 | 0.741 | 0.478 | 0.121 |
| PC-14 | 0.913 | 0.847 | 0.102 | 0.073 | 1.16 | 0.985 | 0.198 | 0.091 | 1 | 0.903 | 0.263 | 0.0674 | 0.227 | 0.19 | 0.0705 | 0.06 |
| NCI-H1755 | 0.95 | 0.934 | 0.2 | 0.174 | 1.01 | 0.98 | 0.369 | 0.215 | 1.03 | 0.92 | 0.326 | 0.137 | 0.703 | 0.773 | 0.44 | 0.213 |

From the supplement of paper PMC10307832
